pEC50, pIC50: −log10 of the molar value. In brackets after ≈: the same amount, converted by molar mass. Values belong to the compound of their own block, whether it stands above or below them.
Key:
[1] = molecular target: T1, G-protein coupled bile acid receptor 1 (Homo sapiens) (UniProt Q8TDU6); assay: Agonist activity at TGR5 in human NCI-H716 cells assessed as increase in GLP-1 secretion at 5 uM measured for 60 mins by SEAP reporter gene based assay relative to control; assay type: functional, cell-based; conditions: filed as agonist
T1 sequence (whole entry): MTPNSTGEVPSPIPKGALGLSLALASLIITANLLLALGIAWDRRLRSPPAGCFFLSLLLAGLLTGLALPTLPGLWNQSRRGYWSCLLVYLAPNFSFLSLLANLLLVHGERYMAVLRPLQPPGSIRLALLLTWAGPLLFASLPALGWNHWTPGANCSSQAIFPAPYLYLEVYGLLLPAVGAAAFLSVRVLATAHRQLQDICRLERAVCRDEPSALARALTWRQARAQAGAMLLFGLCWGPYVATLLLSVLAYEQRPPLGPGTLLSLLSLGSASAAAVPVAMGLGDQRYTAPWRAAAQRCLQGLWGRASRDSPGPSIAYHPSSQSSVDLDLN

[2] = molecular target: T2, G-protein coupled bile acid receptor 1 (Homo sapiens, UniProt Q8TDU6); assay: Agonist activity at human TGR5; assay type: functional
T2 sequence (Q8TDU6 whole entry): T1 sequence (whole entry)

[3] = molecular target: T3, G-protein coupled bile acid receptor 1 (Mus musculus, UniProt Q80SS6); assay: Agonist activity at mouse TGR5 receptor; assay type: functional
T3 sequence (Q80SS6 whole entry): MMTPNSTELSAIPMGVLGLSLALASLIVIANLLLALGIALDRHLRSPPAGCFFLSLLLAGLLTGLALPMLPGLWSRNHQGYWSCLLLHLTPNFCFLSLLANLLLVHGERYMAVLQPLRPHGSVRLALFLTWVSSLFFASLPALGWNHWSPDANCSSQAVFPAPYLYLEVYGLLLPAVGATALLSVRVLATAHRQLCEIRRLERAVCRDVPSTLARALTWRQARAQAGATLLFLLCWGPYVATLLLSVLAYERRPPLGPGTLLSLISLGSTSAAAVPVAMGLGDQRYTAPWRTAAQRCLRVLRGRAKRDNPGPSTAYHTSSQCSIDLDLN

[4] = Aqueous solubility of compound; assay type: physicochemical; conditions: aqueous (not further specified)
[5] = molecular target: Cytochrome P450 2C9 (Homo sapiens, UniProt P11712); assay: Inhibition of CYP2C9 (unknown origin); assay type: ADME
Cytochrome P450 2C9, sequence (P11712 whole entry): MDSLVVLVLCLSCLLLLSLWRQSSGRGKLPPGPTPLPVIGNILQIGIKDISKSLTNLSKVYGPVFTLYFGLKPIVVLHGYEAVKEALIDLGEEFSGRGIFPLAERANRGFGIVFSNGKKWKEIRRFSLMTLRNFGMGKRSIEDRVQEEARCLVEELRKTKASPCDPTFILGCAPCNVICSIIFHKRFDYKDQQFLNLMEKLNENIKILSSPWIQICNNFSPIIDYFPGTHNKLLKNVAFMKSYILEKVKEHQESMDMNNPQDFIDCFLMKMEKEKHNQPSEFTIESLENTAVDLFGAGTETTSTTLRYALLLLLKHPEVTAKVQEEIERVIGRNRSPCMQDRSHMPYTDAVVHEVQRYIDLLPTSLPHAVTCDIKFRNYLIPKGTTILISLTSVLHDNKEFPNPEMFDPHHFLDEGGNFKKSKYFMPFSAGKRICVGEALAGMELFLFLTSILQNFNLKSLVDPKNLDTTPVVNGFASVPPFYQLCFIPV

[6] = molecular target: Cytochrome P450 3A4 (Homo sapiens, UniProt P08684); assay: Inhibition of CYP3A4 (unknown origin); assay type: ADME
Cytochrome P450 3A4, sequence (P08684 whole entry): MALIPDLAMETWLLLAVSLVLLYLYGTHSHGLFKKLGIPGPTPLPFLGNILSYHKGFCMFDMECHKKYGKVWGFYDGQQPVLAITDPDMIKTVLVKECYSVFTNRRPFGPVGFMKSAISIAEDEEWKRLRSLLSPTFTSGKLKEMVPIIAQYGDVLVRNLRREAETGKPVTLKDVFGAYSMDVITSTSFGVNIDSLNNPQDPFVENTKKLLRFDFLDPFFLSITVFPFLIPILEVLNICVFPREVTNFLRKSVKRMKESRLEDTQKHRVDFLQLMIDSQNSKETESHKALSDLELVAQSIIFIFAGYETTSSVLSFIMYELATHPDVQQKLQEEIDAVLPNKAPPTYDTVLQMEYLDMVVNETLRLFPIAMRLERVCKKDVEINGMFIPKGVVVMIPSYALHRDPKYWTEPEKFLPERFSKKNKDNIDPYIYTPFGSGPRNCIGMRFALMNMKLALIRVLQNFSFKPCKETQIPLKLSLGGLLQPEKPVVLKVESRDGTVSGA

[7] = molecular target: T3, G-protein coupled bile acid receptor 1; assay: Agonist activity at mouse TGR5 receptor expressed in HEK293 cells assessed as activation of intracellular cAMP production incubated for 2 hrs by luciferase reporter gene assay; assay type: functional, cell-based
[8] = molecular target: T2, G-protein coupled bile acid receptor 1; assay: Agonist activity at TGR5 (unknown origin) expressed in HEK293 cells; assay type: functional, cell-based
[9] = Clearance in human liver microsomes; assay type: ADME, Microsome; conditions: read-out: CLH
[10] = molecular target: T2, G-protein coupled bile acid receptor 1; assay: Agonist activity at TGR5 in HEK293 cells; assay type: functional, cell-based
[11] = molecular target: CYP450 (isoform not specified) (Homo sapiens, UniProt P04798+P05177+P05181+P08684+P10632+P10635+P11509+P11712+P13584+P20813+P20815+P20853+P24462+P24903+P33260+P33261+P51589+P78329+P98187+Q02928+Q08477+Q16678+Q16696+Q5TCH4+Q6VVX0+Q7Z449+Q8TAV3+Q96SQ9+Q9HB55); assay: Inhibition of CYP450 (unknown origin); assay type: ADME, protein assay
[12] = molecular target: T2, G-protein coupled bile acid receptor 1; assay: Agonist activity at TGR5 (unknown origin) in CHO-K1 cells; assay type: functional, cell-based
[13] = Oral bioavailability in mouse at 2 mg/kg; assay type: ADME, organism-based; conditions: in vivo
[14] = molecular target: T2, G-protein coupled bile acid receptor 1; assay: Agonist activity at TGR5 (unknown origin); assay type: functional
[15] = molecular target: T2, G-protein coupled bile acid receptor 1; assay: Agonist activity at TGR5 receptor in human NCI-H716 cells assessed as activation of intracellular cAMP production incubated for 1 hr by TR-FRET assay; assay type: functional, cell-based

pEC50 [2]: 7.46
pEC50 [3]: 6.82
Structure (SMILES): CN(Cc1cnccc1-c1ccccc1F)C(C#N)c1cc(C(F)(F)F)cc(C(F)(F)F)c1 (stereo unspecified)

pEC50 [8]: 8.00
CLint scaled [9]: 578 mL/min/kg
pIC50 [5]: 5.09
pEC50 [3]: 6.28
pIC50 [6]: 6.52
Structure (SMILES): O=C(c1cccnc1Oc1cc(Cl)ccc1Cl)N1CCN(C2COC2)c2ccccc21

pIC50 [11]: 6.60
Structure (SMILES): CCc1onc(-c2ccccc2)c1C(=O)N(C)c1ccc(Cl)cc1

pEC50 [12]: 6.30
Structure (SMILES): C[C@H]1[C@H](C)CC[C@]2(C(=O)O)CC[C@]3(C)C(=CC[C@@H]4[C@@]5(C)C[C@@H](O)[C@H](O)C(C)(C)[C@@H]5CC[C@]43C)[C@H]12 [COROSOLIC ACID]

pEC50 [15]: 5.89
Structure (SMILES): COc1ccc(S(=O)(=O)N2CCCN(S(=O)(=O)c3ccc(OC)c(OC)c3)CC2)cc1OC [SB-756050]

The next lines start with the compound.

Structure (SMILES): COC(=O)NCc1cccc([C@H]2O[C@H](CC(=O)NCc3ccccc3F)C(=O)N(CC(C)(C)COC(C)=O)c3ccc(Cl)cc32)c1
Activity [1]: 165%

Structure (SMILES): O=C(c1cccnc1Oc1cccc(C(F)(F)F)c1)N1CCCc2ccccc21
solubility [4]: 1 µg/mL (≈ 2.51 µM)
pIC50 [5]: 5.66
pIC50 [6]: 5.23

Structure (SMILES): CN(CC[N+](C)(C)C)C(=O)CCc1cc(Cl)c(Oc2ccsc2C(=O)N2CCSc3ccccc32)cc1Cl
pEC50 [7]: 7.13

Structure (SMILES): O=C(Nc1nnn[nH]1)c1cc(Cl)c(Oc2ncccc2C(=O)N2CCN(C3CC3)c3ccccc32)cc1Cl
pEC50 [8]: 7.15
CLint scaled [9]: 56 mL/min/kg
pIC50 [5]: < 5.00
pIC50 [6]: < 5.00

Structure (SMILES): CC(C)[C@@H](CO)NC(=O)CC[C@@H](C)[C@H]1CC[C@H]2[C@@H]3[C@@H](OC=O)C[C@@H]4C[C@H](OC=O)CC[C@]4(C)[C@H]3CC[C@]12C
pEC50 [10]: 6.96

Structure (SMILES): Fc1cccc(F)c1-c1ccncc1CN1C(c2ccco2)=NO[C@@H]1c1cc(C(F)(F)F)cc(C(F)(F)F)c1Cl
pEC50 [3]: 6.60

Structure (SMILES): CC1(C)CC[C@]2(C(=O)O)CC[C@]3(C)C(=CC[C@@H]4[C@@]5(C)C[C@@H](O)[C@H](O)C(C)(C)[C@@H]5CC[C@]43C)[C@@H]2C1 [MASLINIC ACID]
pEC50 [12]: 5.43

Structure (SMILES): Cc1cc(/C(C[C@H](c2ccc(C3CCC(C(=O)O)CC3)cc2)c2ccccc2C)=N\O)ccn1 (stereo partly specified)
bioavailability [13]: 100%

Structure (SMILES): CO[C@H]1C[C@H]2[C@@H]([C@H](OC)C[C@@H]3C[C@H](O)CC[C@@]32C)[C@@H]2CC[C@H]([C@H](C)CCC(=O)N3CCCC3)[C@@]12C
pEC50 [14]: 6.82

Structure (SMILES): COc1cc(-n2c(N(C)c3ccc(OC)c(OC)c3)cnc2SCc2c(F)cc(OCCCS(=O)(=O)O)cc2F)ccc1F
pEC50 [3]: 9.30

Structure (SMILES): CC(c1cc(C(F)(F)F)cc(C(F)(F)F)c1)N1CCOc2nccc(-c3ccccc3)c2C1 (stereo unspecified)
Activity [1]: 111%

— ChEMBL document CHEMBL5550133, “Update on the development of TGR5 agonists for human diseases” (Eur J Med Chem, 2024)
